{"source": "ChEMBL document CHEMBL3045172", "about": "“Assessment of resistance risk in Spodoptera exigua (Hübner) (Lepidoptera: Noctuidae) to chlorantraniliprole” (2011)", "assay_type_in_all_cases": "functional", "key": {"Spodoptera exigua [1]": {"tested_on": "Spodoptera exigua", "test": "Resistance factor, LC50 for Spodoptera exigua F11 neonate larvae to LC50 for Spodoptera exigua F0 neonate larvae"}, "Spodoptera exigua [2]": {"tested_on": "Spodoptera exigua", "test": "Resistance factor, LC50 for Spodoptera exigua F22 neonate larvae to LC50 for Spodoptera exigua SS neonate larvae"}, "Spodoptera exigua [3]": {"tested_on": "Spodoptera exigua", "test": "Insecticidal activity against Spodoptera exigua F22 neonate larvae assessed as mortality at 27 +/- 1 degC, 60 to 70% RH measured after 72 hr", "settings": "F22, 72 h"}, "Spodoptera exigua [4]": {"tested_on": "Spodoptera exigua", "test": "Insecticidal activity against Spodoptera exigua F11 neonate larvae assessed as mortality at 27 +/- 1 degC, 60 to 70% RH measured after 72 hr", "settings": "F11, 72 h"}, "Spodoptera exigua [5]": {"tested_on": "Spodoptera exigua", "test": "Resistance factor, LC50 for Spodoptera exigua F11 neonate larvae to LC50 for Spodoptera exigua SS neonate larvae"}, "Spodoptera exigua [6]": {"tested_on": "Spodoptera exigua", "test": "Resistance factor, LC50 for Spodoptera exigua F0 neonate larvae to LC50 for Spodoptera exigua SS neonate larvae"}, "Spodoptera exigua [7]": {"tested_on": "Spodoptera exigua", "test": "Insecticidal activity against Spodoptera exigua F0 neonate larvae assessed as mortality at 27 +/- 1 degC, 60 to 70% RH measured after 72 hr", "settings": "F0, 72 h"}, "Spodoptera exigua [8]": {"tested_on": "Spodoptera exigua", "test": "Resistance factor, LC50 for Spodoptera exigua F22 neonate larvae to LC50 for Spodoptera exigua F0 neonate larvae"}, "Spodoptera exigua [9]": {"tested_on": "Spodoptera exigua", "test": "Insecticidal activity against susceptible strain Spodoptera exigua SS neonate larvae assessed as mortality at 27 +/- 1 degC, 60 to 70% RH measured after 72 hr"}}, "data": [{"smiles": "CNC(=O)c1cc(Cl)cc(C)c1NC(=O)c1cc(Br)nn1-c1ncccc1Cl", "note": "[CHLORANTRANILIPROLE]", "values": [{"measurement": "RatioLC50", "setting": "Spodoptera exigua [1]", "result": 5}, {"measurement": "RatioLC50", "setting": "Spodoptera exigua [2]", "result": 137.4}, {"measurement": "LC50", "setting": "Spodoptera exigua [3]", "result": 1.88, "unit": "µg/mL"}, {"measurement": "LC50", "setting": "Spodoptera exigua [4]", "result": 0.78, "unit": "µg/mL"}, {"measurement": "RatioLC50", "setting": "Spodoptera exigua [5]", "result": 56.9}, {"measurement": "RatioLC50", "setting": "Spodoptera exigua [6]", "result": 11.4}, {"measurement": "LC50", "setting": "Spodoptera exigua [7]", "result": 0.157, "unit": "µg/mL"}, {"measurement": "RatioLC50", "setting": "Spodoptera exigua [8]", "result": 12}, {"measurement": "LC50", "setting": "Spodoptera exigua [9]", "result": 0.0137, "unit": "µg/mL"}]}]}
